Reference: BigSolDB 2.1

CN(C)[C@@H]1C(=O)C(C(N)=O)=C(O)[C@@]2(O)C(=O)C3=C(O)c4c(O)cccc4C[C@H]3C[C@@H]12
solubility (mole fraction)
Conditions | 278.15 K | 283.15 K | 288.15 K | 293.15 K | 298.15 K | 303.15 K | 308.15 K | 313.15 K | 318.15 K
in 1,4-dioxane | – | – | 0.00134 | 0.00159 | 0.00188 | 0.0022 | 0.00255 | 0.00294 | 0.00336
in acetonitrile | 0.000118 | 0.00013 | 0.000143 | 0.000156 | 0.000171 | 0.000188 | 0.000206 | 0.000226 | 0.000248
in cyclohexane | 7.64e-06 | 1.05e-05 | 1.42e-05 | 1.93e-05 | 2.47e-05 | 3.03e-05 | 3.85e-05 | 4.74e-05 | 5.7e-05
in ethanol | 0.000131 | 0.000144 | 0.000158 | 0.000172 | 0.000188 | 0.000207 | 0.000225 | 0.000244 | 0.000264
in ethyl acetate | 0.00032 | 0.000392 | 0.000464 | 0.000551 | 0.000649 | 0.000761 | 0.000882 | 0.00103 | 0.00119
in isobutanol | 3.76e-05 | 4.32e-05 | 4.9e-05 | 5.53e-05 | 6.3e-05 | 7.17e-05 | 8.14e-05 | 9.21e-05 | 0.000103
in isopropanol | 4.02e-05 | 4.65e-05 | 5.37e-05 | 6.18e-05 | 7.05e-05 | 8.05e-05 | 9.19e-05 | 0.000105 | 0.000118
in methanol | 0.000166 | 0.000183 | 0.0002 | 0.000218 | 0.000237 | 0.000258 | 0.000282 | 0.000306 | 0.000332
in n-butanol | 4.76e-05 | 5.56e-05 | 6.47e-05 | 7.34e-05 | 8.37e-05 | 9.51e-05 | 0.000107 | 0.000121 | 0.000135
in n-hexane | 3.64e-05 | 4.07e-05 | 4.51e-05 | 5.06e-05 | 5.66e-05 | 6.34e-05 | 7.17e-05 | 8.08e-05 | 8.98e-05
in n-octanol | 3.16e-05 | 3.56e-05 | 3.99e-05 | 4.48e-05 | 5.08e-05 | 5.71e-05 | 6.47e-05 | 7.21e-05 | 8.04e-05
in n-propanol | 0.000101 | 0.000106 | 0.000112 | 0.00012 | 0.000128 | 0.000136 | 0.000145 | 0.000155 | 0.000166
